From patent US9926318B2, “Tetracyclic autotaxin inhibitors” (PharmAkea, Inc., priority 2013, dated 2018)

Target: human autotaxin (ATX) (Homo sapiens (Human), UniProt Q13822)
Experiment: Human autotaxin assay (choline release from LPC, Hep3B conditioned media)
Format: biochemical
Conditions: concentrated conditioned media from Hep3B cells, LPC substrate
Protocol: ATX activity is assayed in concentrated conditioned media from Hep3B human hepatocellular carcinoma cells by measuring the amount of choline released from the substrate, lysophosphatidylcholine (LPC) as it is cleaved to LPA. Conditioned media is collected from confluent Hep3B cells and concentrated 20-fold using Centriprep-30 filter devices (Millipore). […] 100 μl of a color mix containing 4.5 mM 4-aminoantipyrine, 2.7 mM N-ethyl-N-(2-hydroxy-3-sulfopropyl)-m-toluidine, 21 units/ml horseradish peroxidase and 3 units/ml choline oxidase in 50 mM Tris, pH 8, 4.5 mM MgCl2 is added and the incubation continued for 15 minutes at room temperature before reading the absorbance at 555 nm.

Structure (SMILES) | IC50
O=C(O)CCCN1C(=O)C2Cc3c(n(CCCc4ccccc4)c4ccccc34)CN2C1=O (racemic) [Compound 1-7, 4-(1,3-dioxo-6-(3-phenylpropyl)-11,11a-dihydro-1H-imidazo[1′,5′:1,6]pyrido[3,4-b]indol-2(3H,5H,6H)-yl)butanoic acid] | < 500 nM
CN1CC2Cc3c(n(Cc4ccc(F)cc4)c4ccccc34)CN2C1=O (racemic) [Compound 1-14, 6-(4-fluorobenzyl)-2-methyl-5,6,11,11a-tetrahydro-1H-imidazo[1′,5′:1,6]pyrido[3,4-b]indol-3(2H)-one] | < 500 nM
O=C(O)CN1CC2Cc3c(n(Cc4ccc(F)cc4)c4ccccc34)CN2C1=O (racemic) [Compound 1-20, 2-(6-(4-fluorobenzyl)-3-oxo-11,11a-dihydro-1H-imidazo[1′,5′:1,6]pyrido[3,4-b]indol-2(3H,5H,6H)-yl)acetic acid] | 500 to 1000 nM
O=C1C2Cc3c(n(Cc4ccc(F)cc4)c4ccccc34)CN2C(=O)N1Cc1nn[nH]n1 (racemic) [Compound 1-140, 2-((2H-tetrazol-5-yl)methyl)-6-(4-fluorobenzyl)-5,6,11,11a-tetrahydro-1H-imidazo[1′,5′:1,6]pyrido[3,4-b]indole-1,3(2H)-dione] | < 500 nM
CC1(C)c2c(n(Cc3ccc(F)cc3)c3ccccc23)CN2C(=O)NC(=O)C21 (racemic) [Compound A110, 6-(4-fluorobenzyl)-11,11-dimethyl-5,6,11,11a-tetrahydro-1H-imidazo[1′,5′:1,6]pyrido[3,4-b]indole-1,3(2H)-dione] | < 500 nM
CC1(C)c2c(n(Cc3ccc(F)cc3)c3ccccc23)CN2C(=O)NC(=O)C21 (single isomer, unassigned) [A110 ent A, 6-(4-fluorobenzyl)-11,11-dimethyl-5,6,11,11a-tetrahydro-1H-imidazo[1′,5′:1,6]pyrido[3,4-b]indole-1,3(2H)-dione] | < 500 nM
CC1(C)c2c(n(Cc3ccc(F)cc3)c3ccccc23)CN2C(=O)NC(=O)C21 (single isomer, unassigned) [A110 ent B, 6-(4-fluorobenzyl)-11,11-dimethyl-5,6,11,11a-tetrahydro-1H-imidazo[1′,5′:1,6]pyrido[3,4-b]indole-1,3(2H)-dione] | < 500 nM
O=C(O)CCN1C(=O)C2Cc3c(n(Cc4ccc(F)cc4)c4ncccc34)CN2C1=O (single isomer, unassigned; enta) [C114 entA, 3-{8-[(4-fluorophenyl)methyl]-12,14-dioxo-6.8.11.13-tetraazatetracyclo[7.7.0.02, 7.011,15]hexadeca-1(9),2(7),3,5-tetraen-13-yl}propionic acid] | < 500 nM
O=C(O)CCN1C(=O)C2Cc3c(n(Cc4ccc(F)cc4)c4ncccc34)CN2C1=O (single isomer, unassigned; entb) [C114 entB, 3-{8-[(4-fluorophenyl)methyl]-12,14-dioxo-6.8.11.13-tetraazatetracyclo[7.7.0.02, 7.011,15]hexadeca-1(9),2(7),3,5-tetraen-13-yl}propionic acid] | < 500 nM
O=C(O)CCCN1C(=O)[C@@H]2Cc3c(n(Cc4ccc(F)cc4)c4ccccc34)CN2C1=O [Compound 1-2, (S)-4-(6-(4-fluorobenzyl)-1,3-dioxo-11,11a-dihydro-1H-imidazo[1′,5′:1,6]pyrido[3,4-b]indol-2(3H,5H,6H)-yl)butanoic acid] | < 500 nM
O=C(O)CCCN1C(=O)[C@H]2Cc3c(n(Cc4ccc(F)cc4)c4ccccc34)CN2C1=O [Compound 1-3, (R)-4-(6-(4-fluorobenzyl)-1,3-dioxo-11,11a-dihydro-1H-imidazo[1′,5′:1,6]pyrido[3,4-b]indol-2(3H,5H,6H)-yl)butanoic acid] | < 500 nM
COc1ccc(Cn2c3c(c4ccccc42)C[C@H]2C(=O)N(CCCC(=O)O)C(=O)N2C3)cn1 [Compound 1-11, (S)-4-(6-((6-methoxypyridin-3-yl)methyl)-1,3-dioxo-11,11a-dihydro-1H-imidazo[1′,5′:1,6]pyrido[3,4-b]indol-2(3H,5H,6H)-yl)butanoic acid] | < 500 nM
COc1ccc(Cn2c3c(c4ccccc42)C[C@H]2C(=O)N(CCC(=O)O)C(=O)N2C3)cn1 [Compound 1-12, (S)-3-(6-((6-methoxypyridin-3-yl)methyl)-1,3-dioxo-11,11a-dihydro-1H-imidazo[1′,5′:1,6]pyrido[3,4-b]indol-2(3H,5H,6H)-yl)propanoic acid] | < 500 nM
COc1ccc(Cn2c3c(c4ccccc42)C[C@H]2C(=O)N(CC4(C(=O)O)CC4)C(=O)N2C3)cn1 [Compound 1-18, (S)-1-((6-((6-methoxypyridin-3-yl)methyl)-1,3-dioxo-5,6,11,11a-tetrahydro-1H-imidazo[1′,5′:1,6]pyrido[3,4-b]indol-2(3H)-yl)methyl)cyclopropane-1-carboxylic acid] | < 500 nM
O=C(O)CCN1CC2Cc3c(n(Cc4ccc(F)cc4)c4ccccc34)CN2C1=O (stereo not drawn) [Compound 1-21, 3-(6-(4-fluorobenzyl)-3-oxo-11,11a-dihydro-1H-imidazo[1′,5′:1,6]pyrido[3,4-b]indol-2(3H,5H,6H)-yl)propanoic acid] | < 500 nM
O=C1NC(=O)N2Cc3c(c4ccc(Cl)cc4n3Cc3ccc(F)cc3)C[C@@H]12 [Compound 1-26, (S)-8-chloro-6-(4-fluorobenzyl)-5,6,11,11a-tetrahydro-1H-imidazo[1′,5′:1,6]pyrido[3,4-b]indole-1,3(2H)-dione] | > 1000 nM
O=C(O)CCCN1C(=O)[C@@H]2Cc3c(n(Cc4ccc(F)cc4)c4cc(Cl)ccc34)CN2C1=O [Compound 1-27, (S)-4-(8-chloro-6-(4-fluorobenzyl)-1,3-dioxo-5,6,11,11a-tetrahydro-1H-imidazo[1′,5′:1,6]pyrido[3,4-b]indol-2(3H)-yl)butanoic acid] | > 1000 nM
CC(C)(CN1C(=O)[C@@H]2Cc3c(n(Cc4ccc(F)cc4)c4ccccc34)CN2C1=O)C(=O)O [Compound 1-30, (S)-3-(6-(4-fluorobenzyl)-1,3-dioxo-5,6,11,11a-tetrahydro-1H-imidazo[1′,5′:1,6]pyrido[3,4-b]indol-2(3H)-yl)-2,2-dimethylpropanoic acid] | < 500 nM
O=C1[C@@H]2Cc3c(n(Cc4ccc(F)cc4)c4ccccc34)CN2C(=O)N1CC1(C(=O)O)CC1 [Compound 1-34, (S)-1-((6-(4-fluorobenzyl)-1,3-dioxo-5,6,11,11a-tetrahydro-1H-imidazo[1′,5′:1,6]pyrido[3,4-b]indol-2(3H)-yl)methyl)cyclopropane-1-carboxylic acid] | < 500 nM
CC(C)(CCN1C(=O)[C@@H]2Cc3c(n(Cc4ccc(F)cc4)c4ccccc34)CN2C1=O)C(=O)O [Compound 1-39, (S)-4-(6-(4-fluorobenzyl)-1,3-dioxo-5,6,11,11a-tetrahydro-1H-imidazo[1′,5′:1,6]pyrido[3,4-b]indol-2(3H)-yl)-2,2-dimethylbutanoic acid] | < 500 nM

Other lines, results leading:

IC50 | Structure (SMILES)
< 500 nM | O=C1NCC2Cc3c(n(Cc4ccc(F)cc4)c4ccccc34)CN12 (racemic) [Compound 1-13, 6-(4-fluorobenzyl)-5,6,11,11a-tetrahydro-1H-imidazo[1′,5′:1,6]pyrido[3,4-b]indol-3(2H)-one]
< 500 nM | O=C1NCC(=O)N2Cc3c(c4ccccc4n3Cc3ccc(F)cc3)CC12 (racemic) [Compound 1-16, 7-(4-fluorobenzyl)-2,3,6,7,12,12a-hexahydropyrazino[1′,2′:1,6]pyrido[3,4-b]indole-1,4-dione]
< 500 nM | O=C(O)CN1CC(=O)N2Cc3c(c4ccccc4n3Cc3ccc(F)cc3)CC2C1=O (racemic) [Compound 1-23, 2-(7-(4-fluorobenzyl)-1,4-dioxo-3,4,6,7,12,12a-hexahydropyrazino[1′,2′:1,6]pyrido[3,4-b]indol-2(1H)-yl)acetic acid]
< 500 nM | CN1C(=O)C2Cc3c(n(Cc4ccc(F)cc4)c4ccccc34)CN2C1=O (racemic) [Compound 1-129, 6-(4-fluorobenzyl)-2-methyl-5,6,11,11a-tetrahydro-1H-imidazo[1′,5′:1,6]pyrido[3,4-b]indole-1,3(2H)-dione]
< 500 nM | N#CCN1C(=O)C2Cc3c(n(Cc4ccc(F)cc4)c4ccccc34)CN2C1=O (racemic) [Compound 1-139, 2-(6-(4-fluorobenzyl)-1,3-dioxo-5,6,11,11a-tetrahydro-1H-imidazo[1′,5′:1,6]pyrido[3,4-b]indol-2(3H)-yl)acetonitrile]
< 500 nM | O=C1OCC2Cc3c(n(Cc4ccc(F)cc4)c4ccccc34)CN12 (stereo not drawn) [Compound 1-8, 6-(4-fluorobenzyl)-5,6,11,11a-tetrahydrooxazolo[3′,4′:1,6]pyrido[3,4-b]indol-3(1H)-one]
< 500 nM | O=C1OC[C@@H]2Cc3c(n(Cc4ccc(F)cc4)c4ccccc34)CN12 [Compound 1-9, (S)-6-(4-fluorobenzyl)-5,6,11,11a-tetrahydrooxazolo[3′,4′:1,6]pyrido[3,4-b]indol-3(1H)-one]
> 1000 nM | O=C1OC[C@H]2Cc3c(n(Cc4ccc(F)cc4)c4ccccc34)CN12 [Compound 1-10, (R)-6-(4-fluorobenzyl)-5,6,11,11a-tetrahydrooxazolo[3′,4′:1,6]pyrido[3,4-b]indol-3(1H)-one]
< 500 nM | O=C(O)CN1C(=O)C2Cc3c(n(Cc4ccc(F)cc4)c4ccccc34)CN2C1=O (stereo not drawn) [Compound 1-19, 2-(6-(4-fluorobenzyl)-1,3-dioxo-5,6,11,11a-tetrahydro-1H-imidazo[1′,5′:1,6]pyrido[3,4-b]indol-2(3H)-yl)acetic acid]
< 500 nM | O=C(O)CCN1CC(=O)N2Cc3c(c4ccccc4n3Cc3ccc(F)cc3)CC2C1=O (stereo not drawn) [Compound 1-24, 3-(7-(4-fluorobenzyl)-1,4-dioxo-3,4,6,7,12,12a-hexahydropyrazino[1′,2′:1,6]pyrido[3,4-b]indol-2(1H)-yl)propanoic acid]
